Data: ChEMBL document CHEMBL3991601, “The target landscape of clinical kinase drugs” (Science, 2017)
Calls of active or inactive are those of the source. Cut-off read from the data, not from the text of the source, for most assays here: actives have a measured Kd and inactives only a lower limit.

Assays:
[1] = target: Ribosomal protein S6 kinase alpha-5 (Homo sapiens, UniProt O75582)
[2] = target: T1, Phosphorylase b kinase gamma catalytic chain, liver/testis isoform (Homo sapiens, UniProt P15735)
T1 sequence (P15735 whole entry): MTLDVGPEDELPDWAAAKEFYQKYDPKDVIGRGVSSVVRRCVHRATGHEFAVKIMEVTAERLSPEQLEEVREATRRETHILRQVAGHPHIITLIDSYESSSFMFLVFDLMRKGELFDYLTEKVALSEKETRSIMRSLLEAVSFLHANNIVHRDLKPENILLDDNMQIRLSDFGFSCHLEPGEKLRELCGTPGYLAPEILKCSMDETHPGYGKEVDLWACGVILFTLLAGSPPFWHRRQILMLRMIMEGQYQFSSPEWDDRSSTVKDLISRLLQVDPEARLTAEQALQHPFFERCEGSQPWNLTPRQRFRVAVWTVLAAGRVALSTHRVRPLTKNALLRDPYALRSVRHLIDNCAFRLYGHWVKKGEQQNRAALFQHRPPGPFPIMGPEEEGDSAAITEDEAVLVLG

[3] = target: T2, Bifunctional phosphoribosylaminoimidazole carboxylase/phosphoribosylaminoimidazole succinocarboxamide synthetase (Homo sapiens, UniProt P22234)
T2 sequence (P22234 whole entry): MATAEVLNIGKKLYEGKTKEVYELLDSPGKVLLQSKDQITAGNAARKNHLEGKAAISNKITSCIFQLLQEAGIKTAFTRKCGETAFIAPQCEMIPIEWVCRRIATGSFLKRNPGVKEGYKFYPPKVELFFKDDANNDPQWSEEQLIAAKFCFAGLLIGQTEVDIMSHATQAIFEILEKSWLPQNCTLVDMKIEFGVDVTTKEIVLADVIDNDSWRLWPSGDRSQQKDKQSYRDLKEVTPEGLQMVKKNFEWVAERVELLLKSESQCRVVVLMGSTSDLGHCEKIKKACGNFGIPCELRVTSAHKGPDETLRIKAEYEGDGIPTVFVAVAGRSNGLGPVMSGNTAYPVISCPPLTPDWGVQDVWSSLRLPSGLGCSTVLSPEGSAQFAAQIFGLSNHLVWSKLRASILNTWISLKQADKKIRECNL

[4] = target: Serine/threonine-protein kinase MRCK beta (Homo sapiens, UniProt Q9Y5S2)
[5] = target: Mitogen-activated protein kinase 14 (Homo sapiens, UniProt Q16539)
Ephrin type-A receptor 5 = Ephrin type-A receptor 5 (Homo sapiens, UniProt P54756)
[6] = target: T3, Structural maintenance of chromosomes protein 1A (Homo sapiens, UniProt Q14683)
T3 sequence (Q14683 whole entry): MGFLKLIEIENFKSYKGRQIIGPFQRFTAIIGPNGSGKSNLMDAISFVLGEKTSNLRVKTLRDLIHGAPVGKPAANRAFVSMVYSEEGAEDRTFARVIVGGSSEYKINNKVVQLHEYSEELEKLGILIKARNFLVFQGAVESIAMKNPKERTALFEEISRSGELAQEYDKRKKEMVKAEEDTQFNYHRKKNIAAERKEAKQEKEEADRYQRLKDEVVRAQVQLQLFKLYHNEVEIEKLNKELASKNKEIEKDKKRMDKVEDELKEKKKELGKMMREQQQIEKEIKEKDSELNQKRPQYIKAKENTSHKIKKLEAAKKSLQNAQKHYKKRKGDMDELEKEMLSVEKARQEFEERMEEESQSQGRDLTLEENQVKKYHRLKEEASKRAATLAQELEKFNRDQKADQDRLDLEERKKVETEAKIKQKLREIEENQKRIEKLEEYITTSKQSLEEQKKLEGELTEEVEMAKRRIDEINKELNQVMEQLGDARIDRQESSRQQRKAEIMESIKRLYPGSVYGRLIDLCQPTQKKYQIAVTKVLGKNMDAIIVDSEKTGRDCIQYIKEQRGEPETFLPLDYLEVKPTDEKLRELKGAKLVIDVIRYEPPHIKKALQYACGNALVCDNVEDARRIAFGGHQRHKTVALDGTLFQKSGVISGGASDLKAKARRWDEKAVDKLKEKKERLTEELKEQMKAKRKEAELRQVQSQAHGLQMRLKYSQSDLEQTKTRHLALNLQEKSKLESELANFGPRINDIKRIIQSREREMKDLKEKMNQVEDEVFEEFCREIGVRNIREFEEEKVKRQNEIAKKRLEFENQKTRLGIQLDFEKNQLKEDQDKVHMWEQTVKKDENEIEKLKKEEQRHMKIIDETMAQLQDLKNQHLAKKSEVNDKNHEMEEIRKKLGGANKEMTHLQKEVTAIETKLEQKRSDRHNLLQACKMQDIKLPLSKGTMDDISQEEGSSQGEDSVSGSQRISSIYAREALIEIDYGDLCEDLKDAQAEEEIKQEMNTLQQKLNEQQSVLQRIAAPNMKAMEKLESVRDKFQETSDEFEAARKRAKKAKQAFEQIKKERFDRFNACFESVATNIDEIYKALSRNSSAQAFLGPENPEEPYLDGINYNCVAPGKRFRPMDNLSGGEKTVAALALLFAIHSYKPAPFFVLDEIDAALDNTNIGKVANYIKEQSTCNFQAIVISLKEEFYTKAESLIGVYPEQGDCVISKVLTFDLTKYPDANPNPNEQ

[7] = target: Dual specificity tyrosine-phosphorylation-regulated kinase 1A (Homo sapiens, UniProt Q13627)
[8] = target: Interleukin-1 receptor-associated kinase 1 (Homo sapiens, UniProt P51617)
[9] = target: Cyclin-dependent kinase 7 (Homo sapiens, UniProt P50613)
[10] = target: T4, Serine/threonine-protein kinase ULK3 (Homo sapiens, UniProt Q6PHR2)
T4 sequence (Q6PHR2 whole entry): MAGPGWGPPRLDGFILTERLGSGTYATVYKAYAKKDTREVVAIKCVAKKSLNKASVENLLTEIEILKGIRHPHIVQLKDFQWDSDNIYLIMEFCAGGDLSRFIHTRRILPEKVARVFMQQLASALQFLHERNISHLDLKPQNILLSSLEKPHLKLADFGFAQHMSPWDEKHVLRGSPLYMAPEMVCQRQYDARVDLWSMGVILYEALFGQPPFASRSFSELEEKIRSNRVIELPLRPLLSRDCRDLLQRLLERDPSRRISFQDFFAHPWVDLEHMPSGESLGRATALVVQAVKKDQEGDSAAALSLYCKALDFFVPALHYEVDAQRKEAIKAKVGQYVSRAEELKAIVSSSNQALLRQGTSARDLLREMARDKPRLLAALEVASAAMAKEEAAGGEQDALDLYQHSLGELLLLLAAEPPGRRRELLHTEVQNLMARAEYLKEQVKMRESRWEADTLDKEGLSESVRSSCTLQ
Note: in the data inactive means no Kd found up to 30 µM.

Sequence of Ribosomal protein S6 kinase alpha-5 (O75582 whole entry, canonical isoform): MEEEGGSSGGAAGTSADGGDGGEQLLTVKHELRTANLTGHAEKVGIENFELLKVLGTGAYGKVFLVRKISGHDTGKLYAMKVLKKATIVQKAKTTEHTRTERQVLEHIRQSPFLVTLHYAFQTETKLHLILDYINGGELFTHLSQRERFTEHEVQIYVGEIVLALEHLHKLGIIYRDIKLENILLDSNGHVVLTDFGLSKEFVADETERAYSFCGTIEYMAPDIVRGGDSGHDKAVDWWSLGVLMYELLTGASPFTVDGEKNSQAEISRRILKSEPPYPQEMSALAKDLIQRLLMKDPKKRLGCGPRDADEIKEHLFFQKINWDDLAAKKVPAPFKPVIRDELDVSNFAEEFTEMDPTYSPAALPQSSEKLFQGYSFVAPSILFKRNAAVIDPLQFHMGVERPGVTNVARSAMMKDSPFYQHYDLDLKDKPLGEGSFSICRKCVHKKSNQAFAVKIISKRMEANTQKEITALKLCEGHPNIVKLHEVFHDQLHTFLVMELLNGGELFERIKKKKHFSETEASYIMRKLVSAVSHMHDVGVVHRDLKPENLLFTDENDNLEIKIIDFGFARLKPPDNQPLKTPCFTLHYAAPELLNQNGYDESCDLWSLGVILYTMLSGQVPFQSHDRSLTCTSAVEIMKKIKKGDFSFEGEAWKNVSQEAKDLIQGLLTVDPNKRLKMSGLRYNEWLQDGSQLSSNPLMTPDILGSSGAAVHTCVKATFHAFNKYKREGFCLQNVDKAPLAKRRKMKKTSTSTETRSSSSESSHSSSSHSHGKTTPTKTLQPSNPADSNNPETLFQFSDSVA
Sequence of Cyclin-dependent kinase 7 (P50613 whole entry): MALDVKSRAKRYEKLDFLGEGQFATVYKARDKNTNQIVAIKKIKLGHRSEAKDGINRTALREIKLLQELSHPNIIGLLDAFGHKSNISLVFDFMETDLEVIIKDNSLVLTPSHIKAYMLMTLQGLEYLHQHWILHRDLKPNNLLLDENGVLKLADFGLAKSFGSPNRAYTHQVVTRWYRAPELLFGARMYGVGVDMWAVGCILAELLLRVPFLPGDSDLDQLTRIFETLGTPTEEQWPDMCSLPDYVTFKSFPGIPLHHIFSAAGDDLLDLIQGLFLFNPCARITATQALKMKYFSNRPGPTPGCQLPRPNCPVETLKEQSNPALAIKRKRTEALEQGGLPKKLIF
Sequence of Mitogen-activated protein kinase 14 (Q16539 whole entry): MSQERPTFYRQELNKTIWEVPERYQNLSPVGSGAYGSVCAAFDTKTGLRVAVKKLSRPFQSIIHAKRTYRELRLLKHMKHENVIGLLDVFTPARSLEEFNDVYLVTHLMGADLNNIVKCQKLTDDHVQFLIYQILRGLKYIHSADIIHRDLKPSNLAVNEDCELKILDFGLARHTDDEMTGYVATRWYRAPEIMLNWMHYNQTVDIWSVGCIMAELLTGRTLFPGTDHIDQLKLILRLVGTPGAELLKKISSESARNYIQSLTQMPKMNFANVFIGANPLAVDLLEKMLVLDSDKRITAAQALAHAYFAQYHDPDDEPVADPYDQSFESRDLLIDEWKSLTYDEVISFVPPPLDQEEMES
Sequence of Ephrin type-A receptor 5 (P54756 whole entry): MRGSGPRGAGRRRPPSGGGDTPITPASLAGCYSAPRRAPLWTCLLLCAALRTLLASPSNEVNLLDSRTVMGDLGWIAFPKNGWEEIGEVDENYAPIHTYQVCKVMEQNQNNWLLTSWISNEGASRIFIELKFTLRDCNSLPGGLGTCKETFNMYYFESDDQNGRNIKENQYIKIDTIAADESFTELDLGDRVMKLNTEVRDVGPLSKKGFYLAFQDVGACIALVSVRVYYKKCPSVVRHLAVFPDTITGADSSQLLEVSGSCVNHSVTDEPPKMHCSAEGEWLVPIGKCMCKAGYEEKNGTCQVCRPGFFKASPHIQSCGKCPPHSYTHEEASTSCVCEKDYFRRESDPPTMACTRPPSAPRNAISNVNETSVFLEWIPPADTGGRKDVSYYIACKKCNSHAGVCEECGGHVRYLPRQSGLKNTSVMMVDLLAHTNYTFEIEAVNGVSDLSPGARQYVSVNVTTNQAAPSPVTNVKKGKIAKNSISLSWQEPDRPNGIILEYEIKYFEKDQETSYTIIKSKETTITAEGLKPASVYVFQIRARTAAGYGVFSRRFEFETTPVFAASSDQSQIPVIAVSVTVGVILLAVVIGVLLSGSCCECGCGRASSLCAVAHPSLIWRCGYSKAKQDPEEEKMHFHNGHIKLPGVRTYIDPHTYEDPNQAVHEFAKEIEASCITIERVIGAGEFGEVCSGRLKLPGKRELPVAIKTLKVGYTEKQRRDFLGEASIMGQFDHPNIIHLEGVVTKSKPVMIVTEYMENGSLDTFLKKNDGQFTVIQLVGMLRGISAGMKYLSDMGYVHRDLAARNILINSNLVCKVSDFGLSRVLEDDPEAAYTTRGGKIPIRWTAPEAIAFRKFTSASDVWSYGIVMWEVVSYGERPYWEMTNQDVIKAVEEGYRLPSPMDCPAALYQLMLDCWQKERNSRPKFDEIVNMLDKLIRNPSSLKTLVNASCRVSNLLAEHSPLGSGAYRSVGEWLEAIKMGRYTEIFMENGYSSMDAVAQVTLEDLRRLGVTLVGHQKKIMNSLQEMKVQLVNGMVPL
Sequence of Interleukin-1 receptor-associated kinase 1 (P51617 whole entry): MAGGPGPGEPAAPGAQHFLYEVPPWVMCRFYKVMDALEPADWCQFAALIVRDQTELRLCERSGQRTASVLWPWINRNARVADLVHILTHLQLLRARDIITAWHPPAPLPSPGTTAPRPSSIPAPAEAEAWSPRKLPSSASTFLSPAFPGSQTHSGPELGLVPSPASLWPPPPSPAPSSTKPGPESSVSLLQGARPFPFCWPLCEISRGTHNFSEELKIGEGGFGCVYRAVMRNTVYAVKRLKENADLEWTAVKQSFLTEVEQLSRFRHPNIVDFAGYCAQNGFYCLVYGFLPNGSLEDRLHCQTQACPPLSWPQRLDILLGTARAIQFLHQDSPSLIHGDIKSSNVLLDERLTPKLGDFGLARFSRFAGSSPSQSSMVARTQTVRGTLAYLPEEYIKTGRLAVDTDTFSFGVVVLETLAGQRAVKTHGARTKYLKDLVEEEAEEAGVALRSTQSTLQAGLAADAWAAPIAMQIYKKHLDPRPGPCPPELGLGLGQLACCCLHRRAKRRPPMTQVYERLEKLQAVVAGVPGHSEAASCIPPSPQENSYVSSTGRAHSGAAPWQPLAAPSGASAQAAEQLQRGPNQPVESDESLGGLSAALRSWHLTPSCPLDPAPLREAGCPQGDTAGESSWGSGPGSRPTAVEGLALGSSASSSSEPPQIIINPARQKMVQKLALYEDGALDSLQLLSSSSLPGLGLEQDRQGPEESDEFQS
Sequence of Serine/threonine-protein kinase MRCK beta (Q9Y5S2 whole entry): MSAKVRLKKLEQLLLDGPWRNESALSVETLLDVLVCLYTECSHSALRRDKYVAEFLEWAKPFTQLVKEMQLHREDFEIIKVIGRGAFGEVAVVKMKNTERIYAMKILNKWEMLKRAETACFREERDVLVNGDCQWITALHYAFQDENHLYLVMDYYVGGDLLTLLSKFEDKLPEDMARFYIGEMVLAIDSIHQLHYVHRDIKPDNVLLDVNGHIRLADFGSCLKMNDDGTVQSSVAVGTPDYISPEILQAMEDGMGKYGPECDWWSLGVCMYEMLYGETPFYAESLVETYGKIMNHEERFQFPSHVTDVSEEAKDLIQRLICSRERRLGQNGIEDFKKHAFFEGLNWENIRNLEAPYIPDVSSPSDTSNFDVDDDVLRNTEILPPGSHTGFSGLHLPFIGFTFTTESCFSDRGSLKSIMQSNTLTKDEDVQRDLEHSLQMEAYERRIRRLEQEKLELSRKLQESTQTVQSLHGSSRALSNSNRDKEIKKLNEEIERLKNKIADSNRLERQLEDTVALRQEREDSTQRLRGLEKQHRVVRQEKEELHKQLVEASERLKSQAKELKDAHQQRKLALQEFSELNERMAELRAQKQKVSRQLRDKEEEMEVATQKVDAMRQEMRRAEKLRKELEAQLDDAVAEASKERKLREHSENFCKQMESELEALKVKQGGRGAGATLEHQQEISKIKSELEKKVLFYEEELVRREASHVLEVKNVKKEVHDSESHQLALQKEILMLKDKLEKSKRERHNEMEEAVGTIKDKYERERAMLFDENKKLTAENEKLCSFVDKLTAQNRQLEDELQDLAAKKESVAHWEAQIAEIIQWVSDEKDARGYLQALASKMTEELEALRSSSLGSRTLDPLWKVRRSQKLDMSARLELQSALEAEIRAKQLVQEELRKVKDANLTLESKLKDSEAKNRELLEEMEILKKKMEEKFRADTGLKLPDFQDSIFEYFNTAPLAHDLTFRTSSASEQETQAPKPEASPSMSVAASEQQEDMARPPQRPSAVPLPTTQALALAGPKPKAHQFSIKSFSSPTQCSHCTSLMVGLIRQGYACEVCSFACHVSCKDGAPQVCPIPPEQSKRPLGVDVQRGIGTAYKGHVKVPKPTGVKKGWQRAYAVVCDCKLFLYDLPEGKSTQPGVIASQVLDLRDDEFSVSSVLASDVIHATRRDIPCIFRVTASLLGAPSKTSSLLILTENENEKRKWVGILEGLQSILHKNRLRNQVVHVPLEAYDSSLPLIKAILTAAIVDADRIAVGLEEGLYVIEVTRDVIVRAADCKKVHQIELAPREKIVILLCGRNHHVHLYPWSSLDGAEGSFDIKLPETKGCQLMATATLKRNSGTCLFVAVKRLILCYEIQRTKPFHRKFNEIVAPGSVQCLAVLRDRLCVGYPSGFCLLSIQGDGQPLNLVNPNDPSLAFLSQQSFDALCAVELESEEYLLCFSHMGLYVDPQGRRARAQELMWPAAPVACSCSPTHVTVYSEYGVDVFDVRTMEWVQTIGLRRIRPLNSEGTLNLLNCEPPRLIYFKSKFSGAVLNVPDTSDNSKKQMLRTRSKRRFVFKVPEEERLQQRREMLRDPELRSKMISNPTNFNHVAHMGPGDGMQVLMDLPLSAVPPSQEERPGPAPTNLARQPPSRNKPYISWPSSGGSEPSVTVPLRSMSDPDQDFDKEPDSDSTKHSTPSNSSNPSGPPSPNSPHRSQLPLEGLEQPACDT

Kd [1]	Kd [3]	Kd [4]	Kd [5]	Kd (Ephrin type-A receptor 5)	Kd [6]	Kd [7]	Kd [8]	Kd [10]	SMILES	Kd [2]	Kd [9]
> 30 µM (inactive)	> 30 µM (inactive)	> 30 µM (inactive)		> 30 µM (inactive)	> 30 µM (inactive)				COc1cc(Nc2ncc3c(n2)-c2ccc(Cl)cc2C(c2c(F)cccc2OC)=NC3)ccc1C(=O)O [ALISERTIB]		
1.25 µM (active)	> 30 µM (inactive)	> 30 µM (inactive)	> 30 µM (inactive)	> 30 µM (inactive)	> 30 µM (inactive)	2.45 µM (active)	> 30 µM (inactive)		O=C(Nc1c[nH]nc1-c1nc2cc(CN3CCOCC3)ccc2[nH]1)NC1CC1 [AT-9283]		> 30 µM (inactive)
	> 30 µM (inactive)				> 30 µM (inactive)				CNC(=O)c1ccccc1Sc1ccc2c(/C=C/c3ccccn3)n[nH]c2c1 [AXITINIB]		
> 30 µM (inactive)	> 30 µM (inactive)	> 30 µM (inactive)	> 30 µM (inactive)	> 30 µM (inactive)		> 30 µM (inactive)	> 30 µM (inactive)	> 30 µM (inactive)	C#Cc1cccc(Nc2ncnc3cc(OC)c(OCCCCCCC(=O)NO)cc23)c1 [CUDC-101]	> 30 µM (inactive)	> 30 µM (inactive)
	> 30 µM (inactive)				> 30 µM (inactive)				C[C@@H](Oc1cc(-n2cnc3ccc(CN4CCN(C)CC4)cc32)sc1C(N)=O)c1ccccc1C(F)(F)F [GSK-461364]		
> 30 µM (inactive)	> 30 µM (inactive)	> 30 µM (inactive)	> 30 µM (inactive)	0.147 µM (active)	> 30 µM (inactive)	0.105 µM (active)	2.06 µM (active)	> 30 µM (inactive)	CNC(=O)c1nn(C)c2c1C(C)(C)Cc1cnc(Nc3ccc(N4CCN(C)CC4)cc3)nc1-2 [MILCICLIB]	18.6 µM	
	> 30 µM (inactive)	> 30 µM (inactive)	> 30 µM (inactive)	> 30 µM (inactive)	> 30 µM (inactive)			1.46 µM (active)	Cc1[nH]c(/C=C2\C(=O)Nc3ccccc32)c(C)c1CCC(=O)O [ORANTINIB]		
	> 30 µM (inactive)	> 30 µM (inactive)		> 30 µM (inactive)	> 30 µM (inactive)			> 30 µM (inactive)	NC(=O)c1c(OCc2c(F)cc(Br)cc2F)nsc1NC(=O)NCCCCN1CCCC1 [OSI-632]		
> 30 µM (inactive)	> 30 µM (inactive)	> 30 µM (inactive)		> 30 µM (inactive)	> 30 µM (inactive)			0.019 µM (active)	CC(=O)NCC(=O)N1[C@@H]2CC[C@H]1c1ccc(Nc3ncc(C(F)(F)F)c(NC4CCC4)n3)cc12 [PF-03814735]		
	> 30 µM (inactive)				> 30 µM (inactive)				O=C(NOCCO)c1cc(CN2OCCCC2=O)c(F)c(F)c1Nc1ccc(I)cc1F [RO-4987655]		
	> 30 µM (inactive)				> 30 µM (inactive)				N#CC[C@H](C1CCCC1)n1cc(-c2ncnc3[nH]ccc23)cn1 [RUXOLITINIB]		
> 30 µM (inactive)	> 30 µM (inactive)	> 30 µM (inactive)	> 30 µM (inactive)	> 30 µM (inactive)		0.238 µM	> 30 µM (inactive)	> 30 µM (inactive)	Cn1ncc(Cl)c1-c1cc(C(=O)N[C@H](CN)Cc2ccc(F)c(F)c2)oc1Cl [UPROSERTIB]	> 30 µM (inactive)	
> 30 µM (inactive)	> 30 µM (inactive)	0.034 µM (active)		> 30 µM (inactive)	> 30 µM (inactive)	> 30 µM (inactive)	> 30 µM (inactive)	> 30 µM (inactive)	C[C@@H](N)c1ccc(C(=O)Nc2ccnc3[nH]ccc23)cc1 [Y-39983]	> 30 µM (inactive)	> 30 µM (inactive)

SMILES	Kd [1]	Kd [3]	Kd [4]	Kd [5]	Kd (Ephrin type-A receptor 5)	Kd [6]	Kd [7]	Kd [8]	Kd [10]	Kd [2]	Kd [9]
CC(=O)c1cnc2ccc(-c3cc(Cl)c(O)c(Cl)c3)nc2c1N[C@H]1CC[C@H](CN(C)C)CC1	0.298 µM (active)	> 30 µM (inactive)	> 30 µM (inactive)	> 30 µM (inactive)	0.075 µM (active)	> 30 µM (inactive)	0.01 µM (active)			0.397 µM (active)	
NC(=O)Nc1cc(-c2cccc(F)c2)sc1C(=O)N[C@H]1CCCNC1 [AZD-7762]	> 30 µM (inactive)	> 30 µM (inactive)	> 30 µM (inactive)	> 30 µM (inactive)	> 30 µM (inactive)		1.68 µM (active)	> 30 µM (inactive)	1.79 µM (active)	> 30 µM (inactive)	> 30 µM (inactive)
CC(C)(C)c1nc(-c2cccc(NS(=O)(=O)c3c(F)cccc3F)c2F)c(-c2ccnc(N)n2)s1 [DABRAFENIB]	> 30 µM (inactive)	> 30 µM (inactive)	> 30 µM (inactive)			> 30 µM (inactive)			1.48 µM	> 30 µM (inactive)	
Cn1cc(C2=C(c3cn(C4CCN(Cc5ccccn5)CC4)c4ccccc34)C(=O)NC2=O)c2ccccc21 [ENZASTAURIN]		> 30 µM (inactive)				> 30 µM (inactive)					
CCCCCCCCCCCCCCCCCCOP(=O)([O-])OC1CC[N+](C)(C)CC1 [PERIFOSINE]	> 30 µM (inactive)	> 30 µM (inactive)	> 30 µM (inactive)		> 30 µM (inactive)	> 30 µM (inactive)	> 30 µM (inactive)	> 30 µM (inactive)	> 30 µM (inactive)	> 30 µM (inactive)	> 30 µM (inactive)
CNC(=O)c1cc(Oc2ccc(NC(=O)Nc3cc(C(C)(C)C)nn3-c3ccc4ncccc4c3)c(F)c2)ccn1 [REBASTINIB]		> 30 µM (inactive)	> 30 µM (inactive)	2.76 µM (active)	> 30 µM (inactive)	> 30 µM (inactive)	> 30 µM (inactive)		> 30 µM (inactive)	> 30 µM (inactive)	> 30 µM (inactive)
